Data from ChEMBL document CHEMBL1156829 (Proc Natl Acad Sci U S A, 2008).

Experiments:
Plasmodium falciparum [1] = assay: NOVARTIS: Inhibition of Plasmodium falciparum 3D7 (drug-susceptible) proliferation in erythrocyte-based infection assay; assay type: functional, organism-based; conditions: Plasmodium falciparum, 3D7
Plasmodium falciparum [2] = assay: NOVARTIS: Inhibition of Plasmodium falciparum W2 (drug-resistant) proliferation in erythrocyte-based infection assay; assay type: functional, organism-based; conditions: Plasmodium falciparum, W2; read-out: EC50
[3] = NOVARTIS: Cytotoxicity against human hepatocellular carcinoma cell line (Huh7); assay type: toxicity, cell-based, Huh-7; conditions: Huh7 cells (hepatocellular carcinoma cell line)

Row | SMILES | EC50 (Plasmodium falciparum [1]) | EC50 (Plasmodium falciparum [2]) | CC50 [3]
1 | CCN(CC)S(=O)(=O)c1ccc(-c2csc(=Nc3cccc4ccccc34)n2C)cc1 | 60.9 nM | > 1220 nM | > 10000 nM
2 | CCOC(=O)C(C)Oc1cccc2c(=O)n(CC(=O)Nc3ccc(OC(F)(F)F)cc3)ccc12 (centres undefined) | > 1250 nM | > 1220 nM | > 10000 nM
3 | O=C(Nc1ccc(-c2cc(-c3ccccc3)nc(-c3ccc(NC(=O)c4cccc([N+](=O)[O-])c4)cc3)n2)cc1)c1cccc([N+](=O)[O-])c1 | 1340 nM | 1240 nM | > 10000 nM
4 | CC1=NOC(=O)/C1=C\c1cccs1 | > 1250 nM | > 1240 nM | > 10000 nM
5 | CCOc1ccc(S(=O)(=O)Oc2cccc3cccnc23)cc1 | > 1690 nM | > 1190 nM | > 10000 nM
6 | CC1(C)N=C(N)N=C(N)N1c1ccc(I)cc1 | 7.23 nM | > 12500 nM | > 100000 nM
7 | CC(C)CNc1nc(NCCCN2CCCC2)ncc1C(=O)NCc1ccccc1 | 664 nM | > 1230 nM | > 10000 nM
8 | CC(C)CC(=O)OC1C(N2CCCCC2)c2c(ccc(C=CC(=O)N3CCCCC3)c2O)OC1(C)C (centres undefined) | 2600 nM | > 12300 nM | > 100000 nM
9 | O=C(C1CC1)n1cc(C(=O)C(F)(F)F)c2ccccc21 | 1370 nM | > 1220 nM | > 10000 nM
10 | COC(=O)C1=C(C)N(c2ccc(N(C)C)cc2)C(C)=C(C(=O)OC)C1c1ccc(Br)cc1 | > 1250 nM | > 1220 nM | > 10000 nM
11 | CC(=O)N1CCOC1C(C)(C)C/C=C(\C)CCC=C(C)C (centres undefined) | 806 nM | > 1690 nM | > 14100 nM
12 | Cc1ccc(C)c(N2C(=O)CC(Cc3ccc(Cl)cc3)C2=O)c1 (centres undefined) | > 1250 nM | 1230 nM | > 10000 nM
13 | CCOC(=O)c1cnc2c(OC)cccc2c1Nc1cc(C)c(Cl)cc1OC | 539 nM | > 1230 nM | > 10000 nM
14 | c1cncc(-c2cc(NCCCN3CCOCC3)nc(-c3ccncc3)n2)c1 | 1080 nM | 1210 nM | > 10000 nM
15 | CC(CCCC(C)(C)O)Nc1cncc(-c2ccc(C(N)=O)cc2)n1 (centres undefined) | > 1250 nM | > 1200 nM | > 10000 nM
16 | CCCCCN(C(=O)c1ccc2ccccc2c1)C(CC)c1nc2ccccc2c(=O)n1-c1ccccc1OC (centres undefined) | 752 nM | > 1230 nM | > 10000 nM
17 | COc1cc(/C=C(\C#N)c2nc3ccccc3[nH]2)ccc1OCc1ccccc1 | 728 nM | 1210 nM | > 10000 nM
18 | O=C(Nc1ccc(-c2nc3cc(-c4nc5ccccc5o4)ccc3[nH]2)cc1)c1ccc([N+](=O)[O-])cc1 | 1050 nM | 1200 nM | > 10000 nM
19 | COc1cc(OC)cc(-n2nc(C(=O)NC3CCCCC3)c3ccccc3c2=O)c1 | > 1250 nM | > 1220 nM | > 10000 nM
20 | CCCn1c(-c2cccc(Br)c2)nc2ccccc21 | > 1140 nM | > 1220 nM | > 10000 nM
21 | CCN(CC)c1ccc(C2N(Cc3ccccc3)CCN2Cc2ccccc2)c(O)c1 | 2360 nM | 2820 nM | 23600 nM
22 | CCOc1cc([N+](=O)[O-])cc(C=Nc2cccc(NC(=O)c3ccco3)c2)c1O | > 1250 nM | > 1240 nM | > 10000 nM
23 | O=C(NC1CCN(Cc2ccccc2)CC1)c1cc([N+](=O)[O-])cc([N+](=O)[O-])c1 | 476 nM | 1220 nM | > 10000 nM
24 | O=C(Cn1c(-c2ccccc2)c[n+]2ccsc12)c1ccccc1 | 517 nM | 1220 nM | > 10000 nM
25 | COC(F)(C(=O)Nc1c(C)n(C)n(-c2ccccc2)c1=O)C(F)(F)F (centres undefined) | 1550 nM | > 1100 nM | > 9060 nM
26 | COc1cc(NC(C)CCCN(Cc2ccccc2OC)C(=O)c2ccc(C)c([N+](=O)[O-])c2)c2ncccc2c1 (centres undefined) | 873 nM | 555 nM | 4640 nM
27 | COc1cc(NC(=O)C(F)(F)F)c(C(=O)c2ccc(C(F)(F)F)cc2)cc1OC | 1140 nM | > 1200 nM | > 10000 nM

Row | SMILES | EC50 (Plasmodium falciparum [1]) | EC50 (Plasmodium falciparum [2]) | CC50 [3]
28 | CCn1c(-c2ccc(O)cc2)nn(CN2CCN(Cc3ccc4c(c3)OCO4)CC2)c1=S | > 1250 nM | > 1200 nM | > 10000 nM
29 | CCOc1ccccc1NC(=O)CN1CCN(C(=O)c2ccco2)CC1 | 5460 nM | 12000 nM | > 100000 nM
30 | O=C(Nc1cccc(Oc2ccccc2)c1)NC(CN1CCCC1)c1ccccc1 (centres undefined) | 704 nM | 1430 nM | 11800 nM
31 | O=C(C1CCC(Cn2c(=S)[nH]c3ccccc3c2=O)CC1)N1CC=C(c2ccccc2)CC1 (centres undefined) | > 964 nM | 1200 nM | > 10000 nM
32 | CC1CCCCN1CCCNc1ncc(C(=O)NCCc2ccccc2)c(NCC2CCCCC2)n1 (centres undefined) | 602 nM | 1200 nM | > 10000 nM
33 | CC(C)Cc1ccc(/C=C/C(=O)NC2CC2)cc1 | 913 nM | > 1200 nM | > 10000 nM
34 | COc1ccc(C(=O)Nc2ccc3nsnc3c2)cc1OC | > 1250 nM | > 1250 nM | > 10000 nM
35 | COc1ccc(-c2nc3cc(Cc4ccc5[nH]c(-c6ccc(OC)cc6)nc5c4)ccc3[nH]2)cc1 | 234 nM | 775 nM | 6220 nM
36 | CCOC(=O)c1c(NC(=O)CSc2nnc(CNC(=O)c3cccs3)n2-c2cccc(Cl)c2)sc2c1CCCC2 | > 1140 nM | > 1240 nM | > 10000 nM
37 | CC(C)N(CC(=O)Nc1cc(C(C)(C)C)nn1-c1ccc(Cl)cc1)C(=O)c1cccc2ccccc12 | 1210 nM | > 1240 nM | > 10000 nM
38 | O=C(O)c1nsnc1C(O)C(O)C(=O)O (centres undefined) | > 1410 nM | > 1240 nM | > 10000 nM
39 | CCC(c1nc2cc(Cl)ccc2c(=O)n1CC)N(CC)C(=O)c1ccc2ccccc2c1 (centres undefined) | > 1220 nM | 1230 nM | > 10000 nM
40 | O=C1C(Nc2ccc(O)cc2)=CC(=NS(=O)(=O)c2cccs2)c2ccccc21 | 590 nM | 297 nM | 2430 nM
41 | Cn1c(=O)c2c(nc(N3CCN(C(=O)Nc4ccc(F)cc4F)CC3)n2C)n(C)c1=O | > 1250 nM | 1200 nM | > 10000 nM
42 | CC[n+]1c(/C=C/C=C2\N(C)c3ccccc3C2(C)C)n(-c2ccccc2)c2ccc(Cl)cc21 | > 1500 nM | > 1220 nM | > 10000 nM
43 | CCCCCCOc1ccc(NC(=O)c2ccco2)cc1 | 1390 nM | 1200 nM | > 10000 nM
44 | Cc1cc(C)cc(OCC(=O)N2N=C(C(C)C)CC2(O)C(F)(F)F)c1 (centres undefined) | 1750 nM | > 1220 nM | > 10000 nM
45 | COc1cc(/C=C2\SC(c3ccc(C)cc3)=NC2=O)cc(OC)c1OC | > 1250 nM | > 1220 nM | > 10000 nM
46 | Clc1ccc(C2Nc3ccc4ccccc4c3C3C=CCC32)c(Cl)c1 (centres undefined) | > 1250 nM | > 1200 nM | > 10000 nM
47 | CCOc1ccc2[nH]c(=O)c(CN(Cc3ccccc3OC)C(C)=O)cc2c1 | > 1740 nM | > 1210 nM | > 10000 nM
48 | COc1cccc(NC(=O)N(Cc2ccccc2)C(C)c2nc3ccccc3c(=O)n2-c2cc(C)ccc2OC)c1 (centres undefined) | 1240 nM | 1220 nM | > 10000 nM
49 | COc1cccc(CNc2cc(C(=O)NCCNC(C)=O)cc(S(=O)(=O)N(C)C)c2)c1OC | > 431 nM | > 1210 nM | > 10000 nM
50 | CN1CCCN(C(=O)C2CC23CCN(Cc2ccc(N(C)c4ccccc4)cc2)CC3)CC1 (centres undefined) | 1320 nM | 2580 nM | 20800 nM
51 | Cc1ccc(-c2nnc(N3CCOCC3)c3ccccc23)cc1S(=O)(=O)N1CCN(C)CC1 | > 1250 nM | > 1220 nM | > 10000 nM
52 | COc1ccc(C2(Cc3ccccc3)NC(=O)NC2=O)cc1 (centres undefined) | 1340 nM | > 1220 nM | > 10000 nM
53 | Oc1ccc(-c2cncc(NCc3cccc(O)c3)c2)cc1 | 626 nM | 1250 nM | > 10000 nM
